Reference: article PMC8343220, “The selectivity of α‐adrenoceptor agonists for the human α1A, α1B, and α1D‐adrenoceptors” (Pharmacology Research & Perspectives, 2021)

Tests used:
[1] = tested on: parental CHO cell line without any transfected receptors; test: ERK1/2‐phosphorylation, parent CHO cells without transfected receptors; type: cell-based, Chinese hamster; conditions: CHO cells without transfected receptors; maximal response as % of PDBu (10μM) response; mean ± s.e.m.
[2] = tested on: parental CHO cell line without any transfected receptors; test: Intracellular calcium mobilization, parent CHO cells without transfected receptors; type: cell-based, Chinese hamster; conditions: Cricetulus griseus; CHO cells without transfected receptors; response at maximum concentration used (c2), as % of ionomycin (10μM) response; mean ± s.e.m.; read-out: Intracellular calcium release % ionomycin
[3] = target: T1, human α1D‐adrenoceptor (full length) (Homo sapiens, UniProt P25100); test: ERK1/2‐phosphorylation (Surefire Alphascreen), CHO‐α1D cells; type: cell-based
T1 construct: human α1D‐adrenoceptor (full length) were used; expressed in transfected cells; host or cells: CHO-K1
T1 sequence (P25100 1-572): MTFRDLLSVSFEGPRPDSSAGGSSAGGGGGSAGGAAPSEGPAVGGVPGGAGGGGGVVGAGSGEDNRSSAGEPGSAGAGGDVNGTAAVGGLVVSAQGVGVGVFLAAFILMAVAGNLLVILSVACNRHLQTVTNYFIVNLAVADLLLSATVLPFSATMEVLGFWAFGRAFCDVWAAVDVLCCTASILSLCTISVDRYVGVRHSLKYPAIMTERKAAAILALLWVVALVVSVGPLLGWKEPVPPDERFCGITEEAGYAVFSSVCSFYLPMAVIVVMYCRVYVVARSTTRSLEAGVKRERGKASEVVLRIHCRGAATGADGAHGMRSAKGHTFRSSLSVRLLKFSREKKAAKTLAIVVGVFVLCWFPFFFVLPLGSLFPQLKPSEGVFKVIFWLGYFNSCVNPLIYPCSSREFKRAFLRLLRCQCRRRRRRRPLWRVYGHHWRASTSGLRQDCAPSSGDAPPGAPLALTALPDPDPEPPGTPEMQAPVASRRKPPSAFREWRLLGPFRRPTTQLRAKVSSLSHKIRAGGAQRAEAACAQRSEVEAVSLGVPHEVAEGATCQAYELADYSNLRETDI

human α1B‐adrenoceptor [4] = target: T2, human α1B‐adrenoceptor (Homo sapiens, UniProt P35368); test: ERK1/2‐phosphorylation (Surefire Alphascreen), CHO‐α1B cells; type: cell-based
T2 construct: expressed in transfected cells; host or cells: CHO-K1
T2 sequence (P35368 1-520): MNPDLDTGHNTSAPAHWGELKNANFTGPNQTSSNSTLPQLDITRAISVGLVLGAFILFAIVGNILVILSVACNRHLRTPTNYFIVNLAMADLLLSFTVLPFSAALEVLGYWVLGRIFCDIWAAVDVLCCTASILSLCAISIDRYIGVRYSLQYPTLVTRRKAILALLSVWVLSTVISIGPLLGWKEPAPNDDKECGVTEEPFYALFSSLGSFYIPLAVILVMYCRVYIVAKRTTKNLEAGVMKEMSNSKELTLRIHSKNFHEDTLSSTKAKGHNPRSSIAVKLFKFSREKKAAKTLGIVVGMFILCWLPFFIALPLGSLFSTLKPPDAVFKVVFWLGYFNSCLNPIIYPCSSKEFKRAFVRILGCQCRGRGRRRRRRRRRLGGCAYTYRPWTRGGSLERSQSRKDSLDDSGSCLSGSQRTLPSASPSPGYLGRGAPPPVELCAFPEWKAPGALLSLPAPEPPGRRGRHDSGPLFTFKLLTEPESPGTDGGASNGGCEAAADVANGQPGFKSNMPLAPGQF

[5] = target: T1, human α1D‐adrenoceptor (full length); test: Intracellular free calcium mobilization, CHO‐α1D cells; type: cell-based
human α1B‐adrenoceptor [6] = target: T2, human α1B‐adrenoceptor; test: ^3H‐cAMP accumulation, CHO‐α1B cells; type: cell-based; conditions: CHO‐α1B cells
[7] = tested on: parental CHO cell line without any transfected receptors; test: Forskolin‐stimulated cAMP accumulation, parent CHO cells without transfected receptors; type: cell-based, Chinese hamster; conditions: CHO cells without transfected receptors; in presence of forskolin
human α1B‐adrenoceptor [8] = target: T2, human α1B‐adrenoceptor; test: Intracellular free calcium mobilization, CHO‐α1B cells; type: cell-based
human α1A‐adrenoceptor [9] = target: T3, human α1A‐adrenoceptor (Homo sapiens, UniProt P35348); test: ERK1/2‐phosphorylation (Surefire Alphascreen), CHO‐α1A cells; type: cell-based
T3 construct: expressed in transfected cells; host or cells: CHO-K1
T3 sequence (P35348 1-466): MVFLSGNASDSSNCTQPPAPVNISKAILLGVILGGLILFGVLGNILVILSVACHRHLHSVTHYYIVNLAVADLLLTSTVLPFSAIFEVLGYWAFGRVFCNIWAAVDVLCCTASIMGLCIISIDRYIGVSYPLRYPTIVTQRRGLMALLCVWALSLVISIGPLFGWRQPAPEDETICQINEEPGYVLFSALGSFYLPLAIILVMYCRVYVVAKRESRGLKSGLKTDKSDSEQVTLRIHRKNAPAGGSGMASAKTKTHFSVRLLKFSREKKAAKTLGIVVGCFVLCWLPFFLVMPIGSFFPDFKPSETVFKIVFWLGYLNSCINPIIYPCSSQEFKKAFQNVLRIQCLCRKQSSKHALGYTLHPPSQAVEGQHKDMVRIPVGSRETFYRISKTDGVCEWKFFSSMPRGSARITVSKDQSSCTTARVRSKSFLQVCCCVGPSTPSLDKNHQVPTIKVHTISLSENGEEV

human α1A‐adrenoceptor [10] = target: T3, human α1A‐adrenoceptor; test: Intracellular free calcium mobilization, CHO‐α1A cells; type: cell-based
[11] = target: T1, human α1D‐adrenoceptor (full length); test: ^3H‐prazosin whole‐cell radioligand binding, CHO‐α1D cells; conditions: CHO‐α1D cells
human α1B‐adrenoceptor [12] = target: T2, human α1B‐adrenoceptor; test: ^3H‐cAMP accumulation in the presence of 10 μM forskolin, CHO‐α1B cells; type: cell-based; conditions: CHO‐α1B cells; in presence of forskolin; read-out: cAMP accumulation (in presence of forskolin) Log EC50 (converted)
human α1B‐adrenoceptor [13] = target: T2, human α1B‐adrenoceptor; test: ^3H‐prazosin whole‐cell radioligand binding, CHO‐α1B cells; conditions: CHO‐α1B cells
human α1A‐adrenoceptor [14] = target: T3, human α1A‐adrenoceptor; test: ^3H‐cAMP accumulation, CHO‐α1A cells; type: cell-based; conditions: CHO‐α1A cells; % of 10 µM forskolin response

For Clc1cccc(Cl)c1N=C1NCCN1 [Clonidine], the “ERK1/2-phosphorylation % PDBu” value [1] was “No response”, the Emax [2] was 1.6 ± 1% and the “ERK1/2‐phosphorylation % PDBu at 100 µM” value [3] was 6.1 ± 1.3%. For the same molecule, the “ERK1/2‐phosphorylation % PDBu” value (human α1B‐adrenoceptor [4]) was 60.6 ± 7.6%, the EC50 (human α1B‐adrenoceptor [4]; ERK1/2‐phosphorylation Log EC50, CHO‐α1B cells, for bi‐phasic responses the initial stimulatory part) was 89.1 nM and the “Intracellular calcium release % Ionomycin at 100 µM” value [5] was 8.0 ± 0.5%. The “cAMP accumulation % forskolin” value (human α1B‐adrenoceptor [6]; % forskolin maximum response) was 7.5 ± 0.8%, the EC50 (human α1B‐adrenoceptor [6]; read-out: cAMP accumulation Log EC50 (converted)) was 251 nM and the “cAMP accumulation (in presence of forskolin) Log EC50” value [7] was “No response”. For the same molecule, the “Intracellular calcium release % ionomycin” value (human α1B‐adrenoceptor [8]) was 45.4 ± 2.1%, the EC50 (human α1B‐adrenoceptor [8]; Intracellular calcium release Log EC50, CHO‐α1B cells, given as log EC50 (negative numbers)) was 17 nM and the “ERK1/2‐phosphorylation % PDBu” value (human α1A‐adrenoceptor [9]) was 85.7 ± 4.7%. For the same molecule, the “Intracellular calcium release % ionomycin” value (human α1A‐adrenoceptor [10]) was 51.6 ± 1.2%, the Kd ([11]; 3H‐prazosin binding Log KD, whole‐cell binding (from Table 1), log values given negative) was 2570 nM and the Kd ([11]; Log KD α1D, ^3H‐prazosin whole cell binding, given as log KD (negative), mean ± SEM, 'early plateau' = specific binding not fully inhibited) was 2570 nM. The EC50 (human α1B‐adrenoceptor [12]) was 44.7 nM, the Kd (human α1B‐adrenoceptor [13]; Log KD α1B, ^3H‐prazosin whole cell binding, given as log KD (negative), mean ± SEM) was 7410 nM and the Kd (human α1B‐adrenoceptor [13]; Log KD, ^3H‐prazosin binding, whole‐cell binding (from Table 1), given as log KD (negative numbers)) was 7410 nM. For the same molecule, the “cAMP accumulation % forskolin” value (human α1A‐adrenoceptor [14]) was 33.8 ± 3.2%.
